Paper PMC6130198 (ACS chemical biology, 2018)

What was measured:
Fes = Fes (Homo sapiens, UniProt P07332); test: Z'-LYTE in vitro kinase assay; format: biochemical; settings: data not shown
Fgr = Fgr (Homo sapiens, UniProt P09769); test: Z'-LYTE in vitro kinase assay; format: biochemical; settings: data not shown
Syk = Syk (Homo sapiens, UniProt P43405); test: Z'-LYTE in vitro kinase assay; format: biochemical; settings: data not shown
Hck = Hck (Homo sapiens, UniProt P08631); test: Z'-LYTE in vitro kinase assay; format: biochemical; settings: data not shown
[1] = target: other myeloid Src-family kinases; test: In vitro kinase assay; format: biochemical; settings: data not shown
MV4–11 AML cells = test: MV4–11 AML cell xenograft model in NSG mice; settings: 10 mg/kg once daily oral gavage, three weeks
Flt3-ITD = test: Z'-LYTE in vitro kinase assay; format: biochemical; settings: stated in words only

Fes, sequence (P07332 whole entry): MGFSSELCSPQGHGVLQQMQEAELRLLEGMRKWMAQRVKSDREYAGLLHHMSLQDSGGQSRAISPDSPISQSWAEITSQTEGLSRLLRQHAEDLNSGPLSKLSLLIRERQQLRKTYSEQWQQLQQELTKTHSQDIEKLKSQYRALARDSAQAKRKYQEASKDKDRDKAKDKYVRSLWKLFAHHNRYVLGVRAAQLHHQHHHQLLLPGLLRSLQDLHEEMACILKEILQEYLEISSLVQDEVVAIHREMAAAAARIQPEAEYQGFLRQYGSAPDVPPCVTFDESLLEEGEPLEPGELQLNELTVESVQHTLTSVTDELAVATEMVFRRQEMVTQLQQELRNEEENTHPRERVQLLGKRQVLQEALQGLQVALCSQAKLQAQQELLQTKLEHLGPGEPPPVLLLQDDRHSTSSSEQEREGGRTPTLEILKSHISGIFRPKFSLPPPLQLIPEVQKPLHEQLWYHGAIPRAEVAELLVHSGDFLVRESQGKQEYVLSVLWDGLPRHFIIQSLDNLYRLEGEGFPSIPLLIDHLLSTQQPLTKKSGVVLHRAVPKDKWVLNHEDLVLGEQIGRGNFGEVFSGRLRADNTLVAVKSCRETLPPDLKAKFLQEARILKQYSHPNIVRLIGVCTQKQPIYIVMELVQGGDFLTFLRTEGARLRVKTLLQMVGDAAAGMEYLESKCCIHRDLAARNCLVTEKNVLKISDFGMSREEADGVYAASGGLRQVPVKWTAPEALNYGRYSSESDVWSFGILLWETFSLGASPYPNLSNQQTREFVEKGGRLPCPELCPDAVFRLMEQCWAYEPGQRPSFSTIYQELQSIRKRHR
Fgr, sequence (P09769 whole entry): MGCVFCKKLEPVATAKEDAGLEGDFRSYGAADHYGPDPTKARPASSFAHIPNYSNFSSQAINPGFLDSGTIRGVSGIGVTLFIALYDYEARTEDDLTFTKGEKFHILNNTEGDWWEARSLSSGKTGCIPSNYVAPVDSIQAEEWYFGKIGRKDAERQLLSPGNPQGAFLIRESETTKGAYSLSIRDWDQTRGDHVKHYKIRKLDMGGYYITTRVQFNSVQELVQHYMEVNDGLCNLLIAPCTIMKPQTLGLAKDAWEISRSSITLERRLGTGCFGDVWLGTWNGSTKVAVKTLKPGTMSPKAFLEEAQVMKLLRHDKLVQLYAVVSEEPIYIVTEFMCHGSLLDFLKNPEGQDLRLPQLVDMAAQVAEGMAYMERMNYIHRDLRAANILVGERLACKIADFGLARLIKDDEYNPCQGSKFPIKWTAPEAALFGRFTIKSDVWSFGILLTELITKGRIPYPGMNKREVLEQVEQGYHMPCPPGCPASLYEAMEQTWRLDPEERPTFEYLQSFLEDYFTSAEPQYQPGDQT
Hck, sequence (P08631 whole entry): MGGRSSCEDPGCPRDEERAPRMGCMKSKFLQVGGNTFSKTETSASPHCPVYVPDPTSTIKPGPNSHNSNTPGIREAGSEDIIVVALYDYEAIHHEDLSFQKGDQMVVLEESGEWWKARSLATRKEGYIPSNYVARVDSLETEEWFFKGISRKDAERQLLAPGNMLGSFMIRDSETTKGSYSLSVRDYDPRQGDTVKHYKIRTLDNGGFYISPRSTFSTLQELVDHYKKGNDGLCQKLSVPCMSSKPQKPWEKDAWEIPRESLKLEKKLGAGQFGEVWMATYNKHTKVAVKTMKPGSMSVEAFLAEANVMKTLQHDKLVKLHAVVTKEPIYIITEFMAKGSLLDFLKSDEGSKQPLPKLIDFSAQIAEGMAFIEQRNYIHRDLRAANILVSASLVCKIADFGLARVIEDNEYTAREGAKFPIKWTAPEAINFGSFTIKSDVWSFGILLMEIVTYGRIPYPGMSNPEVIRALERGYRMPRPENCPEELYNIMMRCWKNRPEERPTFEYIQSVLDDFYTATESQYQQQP

inhibition of kinase in vitro (Fes) | inhibition of kinase in vitro (Fgr) | inhibition of kinase in vitro (Syk) | inhibition of kinase in vitro (Hck) | IC50 [1] [µM] | inhibition of Flt3-ITD kinase activity in vitro (Flt3-ITD) | SMILES | MV4–11 cells in bone marrow thin sections (human CD45 immunohistochemistry) (MV4–11 AML cells) | MV4–11 cells in spleen thin sections (human CD45 immunohistochemistry) (MV4–11 AML cells) | effect on leukemic cells in the peripheral blood (MV4–11 AML cells; flow cytometry) | effect on spleen engraftment of MV4–11 cells (MV4–11 AML cells; flow cytometry) | reduction of bone marrow engraftment of MV4–11 cells (MV4–11 AML cells; flow cytometry)
does not inhibit | does not inhibit | does not inhibit | does not inhibit | – | – | CC(C)(C)c1cc(NC(=O)Nc2ccc(-c3cn4c(n3)sc3cc(OCCN5CCOCC5)ccc34)cc2)no1 [quizartinib] | – | – | – | – | –
does not inhibit | does not inhibit | does not inhibit | does not inhibit | > 100 | nM inhibitor | CNC(=O)c1cc(Oc2ccc(NC(=O)Nc3ccc(Cl)c(C(F)(F)F)c3)cc2)ccn1 [sorafenib] | still stained strongly for MV4–11 cells | still stained strongly for MV4–11 cells | significant reduction | no effect | no effect
– | does not inhibit | – | does not inhibit | – | – | CCN(CC)CCNC(=O)c1c(C)[nH]c(/C=C2\C(=O)Nc3ccc(F)cc32)c1C [sunitinib] | – | – | – | – | –
does not inhibit | does not inhibit | does not inhibit | does not inhibit | – | – | COc1cc2c(N3CCN(C(=O)Nc4ccc(OC(C)C)cc4)CC3)ncnc2cc1OCCCN1CCCCC1 [tandutinib] | – | – | – | – | –
